Assay results: ChEMBL document CHEMBL2157997, “β-D-2'-α-F-2'-β-C-Methyl-6-O-substituted 3',5'-cyclic phosphate nucleotide prodrugs as inhibitors of hepatitis C virus replication: a structure-activity relationship study” (Bioorg Med Chem Lett, 2012)
One block for each compound: values may come before it.

What was measured:
[1] = Half life in simulated intestinal fluid; type: physicochemical
Hepatitis C virus [2] = assay: Antiviral activity against Hepatitis C virus genotype 1b replicon infected in Lunet cells by luciferase reporter gene assay; type: functional, Hepacivirus hominis
[3] = Half life in rat plasma; type: ADME, cell-free
[4] = Half life in human plasma; type: ADME, cell-free
[5] = Cytotoxicity against human HuH7 cells; type: cell-based; conditions: Huh-7 cells
Hepatitis C virus [6] = assay: Antiviral activity against Hepatitis C virus genotype 1b replicon infected in clone A cells assessed as inhibition of viral replication by RT-PCR analysis; type: functional, Hepacivirus hominis
[7] = Half life in simulated gastric fluid; type: physicochemical
[8] = Half life in human liver S9 fraction; type: ADME, subcellular
HepG2 [9] = assay: Mitochondrial toxicity against human HepG2 cells assessed as decrease in ribosomal DNA up to 100 uM after 14 days by RT-PCR analysis; type: cell-based; conditions: hepg2, 336 h
Rattus norvegicus [10] = assay: Prodrug activation in rat liver assessed as beta-D-2'-deoxy-2'-alpha-fluoro-2'-beta-C-methylguanosine diphosphate level at 40 mg/kg, po administered QD as repeated dose measured at 4 hrs post-dosing on day 8; type: organism-based; design: dose 40 mg/kg, route oral; conditions: in vivo
[11] = AUC (infinity) in rat at 40 mg/kg, po administered QD measured after 1 day; type: ADME, organism-based; design: time infinity, dose 40 mg/kg, route oral; conditions: plasma
BXPC-3 = assay: Cytotoxicity against human BxPC3 cells up to 100 uM after 8 days by MTT assay; type: cell-based; conditions: bxpc-3, 192 h
Rattus norvegicus [12] = assay: Prodrug activation in rat liver assessed as beta-D-2'-deoxy-2'-alpha-fluoro-2'-beta-C-methylguanosine monophosphate level at 40 mg/kg, po administered QD as repeated dose measured at 4 hrs post-dosing on day 8; type: organism-based; design: dose 40 mg/kg, route oral; conditions: in vivo
[13] = Tmax in rat at 40 mg/kg, po administered QD measured after 1 day; type: ADME, organism-based; design: dose 40 mg/kg, route oral; conditions: in vivo
[14] = Cmax in rat at 40 mg/kg, po administered QD measured after 1 day; type: ADME, organism-based; design: dose 40 mg/kg, route oral; conditions: in vivo
Huh-7 [15] = assay: Cytotoxicity against human HuH7 cells up to 100 uM after 8 days by MTT assay; type: cell-based; conditions: huh-7, 192 h
Rattus norvegicus [16] = assay: Prodrug activation in rat liver assessed as total nucleotide level at 40 mg/kg, po administered QD as repeated dose measured at 4 hrs post-dosing on day 8; type: organism-based; design: dose 40 mg/kg, route oral; conditions: in vivo
CCRF-CEM [17] = assay: Mitochondrial toxicity against human CEM cells assessed as decrease in mitochondrial COX2 DNA up to 100 uM after 14 days by RT-PCR analysis; type: cell-based; conditions: 336 h
CCRF-CEM [18] = assay: Cytotoxicity against human CEM cells up to 100 uM after 8 days by MTT assay; type: cell-based; conditions: 192 h
[19] = Half life in rat at 40 mg/kg, po administered QD measured after 1 day; type: ADME, organism-based; design: dose 40 mg/kg, route oral; conditions: in vivo
Rattus norvegicus [20] = assay: Tlast in rat at 40 mg/kg, po administered QD measured after 7 days; type: ADME, organism-based; design: dose 40 mg/kg, route oral; conditions: in vivo, 168 h
[21] = Cmax in rat at 40 mg/kg, po administered QD measured after 7 days; type: ADME, organism-based; design: dose 40 mg/kg, route oral; conditions: in vivo
CCRF-CEM [22] = assay: Mitochondrial toxicity against human CEM cells assessed as decrease in ribosomal DNA up to 100 uM after 14 days by RT-PCR analysis; type: cell-based; conditions: 336 h
Huh-7 [23] = assay: Prodrug activation in human HuH7 cells infected with HCV genotype 1b assessed as Tmax of beta-D-2'-deoxy-2'-alpha-fluoro-2'-beta-C-methylguanosine triphosphate level at 100 uM; type: cell-based; conditions: huh-7, 100 µM
[24] = AUClast in rat at 40 mg/kg, po administered QD measured after 1 day; type: ADME, organism-based; design: dose 40 mg/kg, route oral; conditions: plasma
[25] = AUClast in rat at 40 mg/kg, po administered QD measured after 7 days; type: ADME, organism-based; design: dose 40 mg/kg, route oral; conditions: plasma
[26] = Half life in rat at 40 mg/kg, po administered QD measured after 7 days; type: ADME, organism-based; design: dose 40 mg/kg, route oral; conditions: in vivo
Rattus norvegicus [27] = assay: Prodrug activation in rat liver assessed as free nucleoside level at 40 mg/kg, po administered QD as repeated dose measured at 4 hrs post-dosing on day 8; type: organism-based; design: dose 40 mg/kg, route oral; conditions: in vivo
HepG2 [28] = assay: Mitochondrial toxicity against human HepG2 cells assessed as decrease in mitochondrial COX2 DNA up to 100 uM after 14 days by RT-PCR analysis; type: cell-based; conditions: hepg2, 336 h
Rattus norvegicus [29] = assay: Prodrug conversion in rat liver assessed as beta-D-2'-deoxy-2'-alpha-fluoro-2'-beta-C-methylguanosine triphosphate level at 40 mg/kg, po administered QD as repeated dose measured at 4 hrs post-dosing on day 8; type: ADME, organism-based; design: dose 40 mg/kg, route oral; conditions: in vivo
Hepatitis C virus [30] = assay: Antiviral activity against Hepatitis C virus expressing NS5B S282T mutant by cell-based replicon assay; type: functional, Hepacivirus hominis
Hepatitis C virus [31] = assay: Ratio of PSI-352938 EC90 to compound EC90 for Hepatitis C virus genotype 1b infected in clone A cells; type: functional, Hepacivirus hominis
HepG2 [32] = assay: Cytotoxicity against human HepG2 cells up to 100 uM after 8 days by MTT assay; type: cell-based; conditions: hepg2, 192 h
[33] = AUC (infinity) in rat at 40 mg/kg, po administered QD measured after 7 days; type: ADME, organism-based; design: time infinity, dose 40 mg/kg, route oral; conditions: plasma
Hepatocyte = assay: Prodrug activation in human primary hepatocytes assessed as assessed as Tmax of beta-D-2'-deoxy-2'-alpha-fluoro-2'-beta-C-methylguanosine triphosphate level at 100 uM; type: cell-based, Liver
Rattus norvegicus [34] = assay: Tlast in rat at 40 mg/kg, po administered QD measured after 1 day; type: ADME, organism-based; design: dose 40 mg/kg, route oral; conditions: in vivo, 24 h
[35] = Tmax in rat at 40 mg/kg, po administered QD measured after 7 days; type: ADME, organism-based; design: dose 40 mg/kg, route oral; conditions: in vivo
Hepatitis C virus [36] = assay: Antiviral activity against Hepatitis C virus infected in po dosed human assessed as log reduction in viral load; type: functional, Hepacivirus hominis

EC90 (Hepatitis C virus [2]): 2250 nM
Compound: CCOP1(=O)OC[C@H]2O[C@@H](n3cnc4c(OC(C)C)nc(N)nc43)[C@](C)(F)[C@@H]2O1 (stereo partly specified)

EC90 (Hepatitis C virus [6]): 13300 nM
Compound: CCCOP1(=O)OC[C@H]2O[C@@H](n3cnc4c(OCC)nc(N)nc43)[C@](C)(F)[C@@H]2O1 (stereo partly specified)
CC90 [5]: > 100000 nM

EC90 (Hepatitis C virus [2]): 39 nM
Compound: COc1nc(N)nc2c1ncn2[C@@H]1O[C@@H]2COP(=O)(OC3CCCCC3)O[C@H]2[C@@]1(C)F (stereo partly specified)
CC90 [5]: > 10000 nM

half-life [1]: > 20 h | EC90 (Hepatitis C virus [2]): 740 nM | half-life [3]: > 24 h | half-life [4]: > 24 h | Tmax (Huh-7 [23]): 96 h | EC90 (Hepatitis C virus [6]): 1370 nM | half-life [7]: > 20 h | half-life [8]: > 24 h | Tmax (Hepatocyte): 24 h
Compound: CCOc1nc(N)nc2c1ncn2[C@@H]1O[C@@H]2COP(=O)(OC(C)C)O[C@H]2[C@@]1(C)F (stereo partly specified) [PSI-352938]
CC90 [5]: > 100000 nM | Activity (Hepatitis C virus [36]): >5 log10IU/ml

The remaining lines, values behind:

Compound: CC(C)Oc1nc(N)nc2c1ncn2[C@@H]1O[C@@H]2COP(=O)(OC(C)C)O[C@H]2[C@@]1(C)F (stereo partly specified)
half-life [1]: > 20 h | EC90 (Hepatitis C virus [2]): 740 nM | half-life [3]: > 24 h | half-life [4]: > 24 h | CC90 [5]: > 100000 nM | EC90 (Hepatitis C virus [6]): 677 nM | half-life [7]: > 20 h | half-life [8]: 16.3 h

Compound: CC(C)Oc1nc(N)nc2c1ncn2[C@@H]1O[C@@H]2COP(=O)(OCc3ccccc3)O[C@H]2[C@@]1(C)F (stereo partly specified)
EC90 (Hepatitis C virus [2]): 40 nM | CC90 [5]: > 100000 nM

Compound: CC(C)Oc1nc(N)nc2c1ncn2[C@@H]1O[C@@H]2COP(=O)(O)O[C@H]2[C@@]1(C)F
EC90 (Hepatitis C virus [2]): > 10000 nM

Compound: COc1nc(N)nc2c1ncn2[C@@H]1O[C@@H]2COP(=O)(OC3CCCC3)O[C@H]2[C@@]1(C)F (stereo partly specified)
Activity (HepG2 [9]): Non-toxic | Drug metabolism (Rattus norvegicus [10]): 31 nmol/g | AUC(0-inf) [11]: 690 ng·h/mL | Activity (BXPC-3): Non-toxic | half-life [1]: 14 h | Drug metabolism (Rattus norvegicus [12]): 26.6 nmol/g | EC90 (Hepatitis C virus [2]): 37 nM | Tmax [13]: 1.67 h | Cmax [14]: 160 ng/mL | Activity (Huh-7 [15]): Non-toxic | Drug metabolism (Rattus norvegicus [16]): 61.37 nmol/g | Activity (CCRF-CEM [17]): Non-toxic | half-life [3]: 22 h | Activity (CCRF-CEM [18]): Non-toxic | half-life [4]: > 24 h | half-life [19]: 1.8 h | CC90 [5]: > 100000 nM | Tlast (Rattus norvegicus [20]): 7.33 h | Cmax [21]: 120 ng/mL | Activity (CCRF-CEM [22]): Non-toxic | Tmax (Huh-7 [23]): 72 h | EC90 (Hepatitis C virus [6]): 102 nM | AUC(0-t) at 24 h [24]: 660 ng·h/mL | AUC(0-t) at 168 h [25]: 510 ng·h/mL | half-life [26]: 0.93 h | Drug metabolism (Rattus norvegicus [27]): 21.28 nmol/g | half-life [7]: 9.2 h | Activity (HepG2 [28]): Non-toxic | Drug metabolism (Rattus norvegicus [29]): 3.78 nmol/g | EC90 (Hepatitis C virus [30]): 27 nM | Ratio (Hepatitis C virus [31]): >=10 | Activity (HepG2 [32]): Non-toxic | AUC(0-inf) [33]: 510 ng·h/mL | half-life [8]: 20 h | Tmax (Hepatocyte): 8 h | Tlast (Rattus norvegicus [34]): 7.33 h | Tmax [35]: 1.67 h

Compound: COc1nc(N)nc2c1ncn2[C@@H]1O[C@@H]2COP(=O)(OC3CCC3)O[C@H]2[C@@]1(C)F (stereo partly specified)
Activity (HepG2 [9]): Non-toxic | Drug metabolism (Rattus norvegicus [10]): 32.36 nmol/g | AUC(0-inf) [11]: 9500 ng·h/mL | Activity (BXPC-3): Non-toxic | half-life [1]: < 6 h | Drug metabolism (Rattus norvegicus [12]): 29.9 nmol/g | EC90 (Hepatitis C virus [2]): 46 nM | Tmax [13]: 1.67 h | Cmax [14]: 2080 ng/mL | Activity (Huh-7 [15]): Non-toxic | Drug metabolism (Rattus norvegicus [16]): 65.93 nmol/g | Activity (CCRF-CEM [17]): Non-toxic | half-life [3]: 15.8 h | Activity (CCRF-CEM [18]): Non-toxic | half-life [4]: 18.3 h | half-life [19]: 1.32 h | CC90 [5]: > 100000 nM | Tlast (Rattus norvegicus [20]): 20 h | Cmax [21]: 5170 ng/mL | Activity (CCRF-CEM [22]): Non-toxic | Tmax (Huh-7 [23]): 48 h | EC90 (Hepatitis C virus [6]): 135 nM | AUC(0-t) at 24 h [24]: 9480 ng·h/mL | AUC(0-t) at 168 h [25]: 13900 ng·h/mL | half-life [26]: 1.43 h | Drug metabolism (Rattus norvegicus [27]): 15.5 nmol/g | half-life [7]: < 4 h | Activity (HepG2 [28]): Non-toxic | Drug metabolism (Rattus norvegicus [29]): 3.69 nmol/g | EC90 (Hepatitis C virus [30]): 67 nM | Ratio (Hepatitis C virus [31]): >=10 | Activity (HepG2 [32]): Non-toxic | AUC(0-inf) [33]: 13900 ng·h/mL | half-life [8]: 2.6 h | Tmax (Hepatocyte): > 48 h | Tlast (Rattus norvegicus [34]): 20 h | Tmax [35]: 4 h
